Reference: US20230146923A1, “COMPOSITIONS AND METHODS FOR INHIBITION AND TARGETING OF P97” (California Institute of Technology, priority 2021, published 2023)
Where a SMILES comes first, the peptide text is derived from it. The star is where a group is joined. Cbz = O=C(OCc1ccccc1)*

Columns and labels:
Assay type in all cases: cell-based
[1] = tested on: E2F1; assay: E2F1 levels by qPCR and western blot; details: HCT116, 6 h
Description: FIGS. 11A-11B show the effect of p97 inhibitors and MG132 on E2F1 expression in HCT116 cells. […] For both qPCR and western blot assays, HCT116 cells were treated for 6 h with DMSO, 1 μM of MG132 (MG), 2 μM of CB-5083 (CB) or 4 μM of NMS-873 (NMS), n=2, **** indicates p<0.0001, *** indicates p<0.001, * indicates p<0.05 according to unpaired t-test.
To determine if the decreased expression of E2F1 target genes was caused by the downregulation of E2F1 levels due to ER stress, qPCR and western blot were used to evaluate E2F1 levels. […] The transcriptional activity of E2F1 can also be repressed through the formation of a complex with the tumor suppressor protein retinoblastoma (RB1) (FIG. 10B). Hyperphosphorylation of RB1 by cyclin-D-cyclin-dependent kinase 4/6 complex (CCND1-CDK4/6) inactivates RB1 and induces the release of the E2F1 from the complex. The newly released E2F1 leads to transcriptional activation of target genes. […] This downregulation of CCND1 and CDK4 was further confirmed by western blot (FIG. 10D). […] Furthermore, the downregulation of CCND1 occurred after the upregulation of ATF3 (FIG. 10F). ATF3 is a stress-inducible gene, which binds to the cyclin D1 promoter and represses its transcription. Therefore, the upregulation of ATF3 potentially contribute to the downregulation of CCND1.

[2] = tested on: E2F1; assay: E2F1 reporter assay; details: HCT116 transfected with pGL2-AN plasmid, 8 h treatment, luminescence
Description: (§1) FIGS. 10A-10F depicts p97 inhibition impairs the transcriptional activity of E2F1 by downregulating the CCND1/CDK complex. […] Data was analyzed using the g:Profiler website. Shading indicates the gene is a potential target of transcription factor c-Myb or E2F1. Blank indicates it is not a target gene. FIG. 10B depicts known regulatory network of the CCND1/CDK/RB1/E2F1 pathway. […] HCT116 cells were treated with 1 μM MG132, 2 μM CB-5083 or 4 μM of NMS-874 for 6 h. FIGS. 10E and 10F show transcriptional activity of E2F1 measured using E2F1 reporter assay. HCT116 cells were transfected with pGL2-AN plasmid (Addgene: 20950) for 24 h. Then cells were plated in 384 well plate and incubated for 16 h. The luminescence were detected after 8 h treatment with MG132, CB-5083 or NMS-873. Data are shown as mean±SD, n=3. f, qRT-PCR analysis of ATF3, DHFR and CCND1 RNAs following treatment with MG132, CB-5083 or NMS-874. HCT116 cells were treated for 2, 6 and 24 h using the same concentration as proteomic and western blot assay (n=4).
(§2) To determine if the decreased expression of E2F1 target genes was caused by the downregulation of E2F1 levels due to ER stress, qPCR and western blot were used to evaluate E2F1 levels. […] The transcriptional activity of E2F1 can also be repressed through the formation of a complex with the tumor suppressor protein retinoblastoma (RB1) (FIG. 10B). […]

[3] = tested on: HCT116 cells; assay: qRT-PCR analysis of ATF3, DHFR and CCND1 RNAs; details: HCT116, qPCR
Description: as §1, §2

[4] = tested on: Securin; assay: Securin degradation (CHX chase) in HCT116 cells; details: HCT116, 1 μM MG132, 50 μM CHX
Description: The concentration of MG132, CB-5083 and Baf A1 was 1 μM, 2 μM and 10 μM, respectively. […] FIGS. 13D-13E depict the half-life of Securin in HCT116 cells. HCT116 cells were treated with 1 μM of MG132, 2 μM of CB-5083, 1 μM of MG132 plus 2 μM of CB-5083 or DMSO. […] Cells were pretreated with […] for 1 h. […] For FIGS. 13B-13G, D, B, M, C and N represents DMSO, Baf A1, MG132, CB-5083 and NMS-873, respectively. Data are shown as mean±SD. Statistical analysis was performed using one-way ANOVA.

In the case of `CC(C)C[C@@H](C=O)NC(=O)[C@H](CC(C)C)NC(=O)[C@H](CC(C)C)NC(=O)OCc1ccccc1` [MG132] (Cbz-Leu-Leu-Leu-aldehyde), the “E2F1 RNA levels” value ([1]; qPCR, 1 μM MG132, 2 μM CB-5083, 4 μM NMS-873) is reported as “strongly downregulated”, the “Protein level of E2F1” value ([1]; western blot) is reported as “increased” and the “Transcriptional activity of E2F1” value [2] is reported as “reduce the transcriptional activity of E2F1”. The “mRNA levels of the E2F1 target gene DHFR” value [3] was “reducing the mRNA level of DHFR” and the “Securin protein degradation from the cytosol and nucleus” value [4] was “blocked”.
